Measurements: a melting point compilation (Tetko et al.; mined from patent text by program, amines drawn as free bases though some values may be those of a salt)

melting point	Compound
198 to 206 °C	CCNC(=O)c1ccc(N2CCN(Cc3cc(Cc4ccccc4)c4c(c3)NC(=O)C(C)O4)CC2)cc1 (centres undefined)
147 °C	O=Cc1[nH]cc2c1OCCO2
243 to 245 °C	COc1ccccc1-c1cc2c(ccn2C)c2c1C(=O)NC2=O
89 to 96 °C	OCC1OC(n2cnc3c(NC(c4ccccc4)c4ccccc4)ncnc32)C(O)C1O (centres undefined)
228 to 230 °C	Cn1cc(-c2ccc3nc(NC(=O)c4ccc(C(C)(C)C)nc4)cn3c2)cn1
210 to 212 °C	CCNc1nc(CC)c(C(=O)c2ccc(N)c([N+](=O)[O-])c2)s1
162 °C	OC1CSC(Oc2cc(-c3ccnc(F)c3)ccc2Cl)C(O)C1O (centres undefined)
99 to 101 °C	COC(=O)CC1=CCN(C)c2ccc(Cl)cc21
144 °C	CS(=O)(=O)c1ccc(-c2cc(Cl)c(Cl)cc2-c2ccc(F)cc2)cc1
165 to 167 °C	O=C(O)Cc1ccccc1Oc1ccc(C(F)(F)F)cc1[N+](=O)[O-]
74 to 75 °C	CC(=O)C1CC2CCC1(COC(=O)Oc1ccccc1)CC2 (centres undefined)
63 to 66 °C	C=C[C@]1(C)CCc2c(C)c(OCc3ccccc3)c(C)c(C)c2O1
80 to 82 °C	CC(C)(C)OC(=O)NCCC[C@H](NC(=O)OC(C)(C)C)C(=O)OC(C)(C)C
166 to 170 °C	CS(=O)(=O)N1CCN(c2ccc(C(=O)CCc3ccc(N)cc3)cc2)CC1
162 to 164 °C	Nc1ncc(Sc2ccc([N+](=O)[O-])cc2)s1
85 °C	CN1CCC(OC2c3ccccc3CC(C)(C)n3cc(-c4ccccc4)nc32)CC1 (centres undefined)
177 to 178 °C	Cn1nnc(-c2ccc3c(c2)c(C2=CCN(CCN4CCNC4=O)CC2)cn3-c2ccncc2)n1
102 to 103 °C	CCOC(=O)c1cc(C#N)c(Cl)cc1OC
227 to 229 °C	Cn1nc(C(=O)NCc2ccc(Cl)cc2)c(=O)c2cc(C#CCCO)ccc21
255 to 256 °C	CC1Nc2ccc(S(=O)(=O)N3CCCCC3)cc2S(=O)(=O)N1 (centres undefined)
73 °C	O=[N+]([O-])c1ccc(Cl)c(F)c1O
140 °C	COc1ccc(CN(C)CC=CCc2ccc(NC(=O)c3cccc4c(=O)c5ccccc5[nH]c34)cc2)cc1OC
79 to 80 °C	CCOC(=O)CCCCCCC(NC(N)=O)C(=O)OCC (centres undefined)
79 to 80 °C	COC(=O)C(C)Oc1ccc([N+](=O)[O-])cc1 (centres undefined)

melting point	Compound
118 to 120 °C	Oc1ccc(C(F)(F)C(F)(F)OC(F)(F)C(F)(F)OC(F)(F)C(F)(F)c2ccc(O)cc2)cc1
107 °C	OC1(c2ccccc2)CCN(CCC2Cc3ccccc3O2)CC1 (centres undefined)
183 to 185 °C	O=S(=O)(Nc1cnc(-n2ccnc2)nc1NCc1ccc(Br)cc1)c1ccc(Cl)cc1
174 °C	Nc1ccc(-c2cc(OCC(=O)N3CCOCC3)c3c(C(F)(F)F)cccc3n2)cc1
200 to 202 °C	O=[N+]([O-])c1ccc2c(c1)nc(/C=C/c1ccccc1)n2-c1ccccn1
259 to 260 °C	O=C(O)CCCOc1cccc(CNC(=O)c2nc3ccccc3c(=O)[nH]2)c1
121 to 123 °C	COC(=O)Cc1nc(-c2cc(C(C)(C)C)c(O)c(C(C)(C)C)c2)oc1C
> 360 °C	O=C(O)c1cc(C#Cc2ccccc2)c(C(=O)O)cc1C#Cc1ccccc1
> 270 °C	O=C(O)Cn1cc(-c2ccc3nnn(Cc4ccc5ncccc5c4)c3n2)cn1
182 to 183 °C	CS(=O)(=O)c1ccc(CC(=O)c2ccc(F)cc2)cc1
82 to 84 °C	CN1C(=O)c2ccccc2OC1C(Cl)(Cl)Cl (centres undefined)
97 °C	COC(=O)CCCc1cc2nc(Cl)ccc2n1S(=O)(=O)c1cccc(C(F)(F)F)c1
177 to 178 °C	Nc1ccc(N2C(=O)CCCC2c2ccc(Cl)c(Cl)c2)cc1 (centres undefined)
125 to 129 °C	COc1cccc(CCC(C(=O)c2ccc(O)cc2)c2ccccc2)c1 (centres undefined)
148 to 150 °C	CCOC(=O)c1ccc(NC(=O)c2ccc3c(c2)SCCC3(C)C)cc1
233 to 236 °C	Nc1nn(Cc2ccccc2)c2nc3n(c(=O)c12)CCS3
86 to 89 °C	COC(=O)C1(CN=Cc2ccccc2)C=CC=CC1 (centres undefined)
164 °C	N#Cc1cc(C2=Nc3cc(O)c(-c4ccc(F)cc4)cc3NC(=O)C2)ccn1
174 to 177 °C	Nc1sc2c(c1C(=O)c1ccc3ccccc3c1)CCN(Cc1ccccc1)C2
226 °C	O=C1CCCc2c1[nH]c1ccc(Cl)cc21
83 to 85 °C	O=C(O)CCc1ccc(Cl)cc1F
174 to 180 °C	Cc1ncc(COP(=O)(O)O)c(CN(CCN(CC(=O)O)Cc2c(COP(=O)(O)O)cnc(C)c2O)CC(=O)O)c1O
190 to 191 °C	COc1ccc(N2CCN(S(=O)(=O)[C@H](C)[C@](O)(Cn3cncn3)c3ccc(F)cc3F)CC2)cc1
87 to 89 °C	COc1ccc2[nH]c(S(=O)Cc3ncnc(N4CCCCC4)c3C)nc2c1 (centres undefined)

melting point	Compound
129 to 130 °C	C=CCNC(=O)C1C=C(O)c2cc(Cl)ccc2O1 (centres undefined)
221 to 222 °C	O=C(O)/C=C/c1ccc(N2CCC3(CC2)OCCO3)cc1
88 to 93 °C	O=C(c1ccc(OCC2CO2)cc1)c1cccc(C(=O)c2ccc(OCC3CO3)cc2)c1 (centres undefined)
113 to 115 °C	CC(CC1c2ccccc2CCN1C)NCC(O)c1ccc(O)cc1 (centres undefined)
280 °C	CSc1ccc(-c2nc(S)[nH]c2-c2ccc(SC)cc2)cc1
185 to 187 °C	COc1ccc(N(CCC(=O)NCC(=O)O)C(=O)c2ccc(Cl)cc2)cc1
101 to 103 °C	CCOC(=O)C1=Cc2cc(C(C)=O)ccc2OC1C(F)(F)F (centres undefined)
355 to 358 °C	NC(=O)c1nc(-c2cccc(O)c2)nc2c1[nH]c(=O)n2-c1c(F)cccc1F
133 to 135 °C	COC1(c2cccc(Sc3ccc4c(c3)C(C)(C)S(=O)(=O)C4(C)C)c2)CCOCC1
155 to 165 °C	O=P(O)(c1ccc(S(=O)(=O)c2ccccc2)cc1)c1ccc(S(=O)(=O)c2ccccc2)cc1
176 to 178 °C	Cc1noc([C@@H](Cc2ccccc2)NC(=O)[C@@H](Cc2ccc3ccccc3c2)NC(=O)c2cccc(CNC(=O)OC(C)(C)C)c2)n1
176 °C	Cn1cnc(COc2nn3c(-c4ccccc4F)nnc3cc2C2CCC2)c1
163 °C	CCCN(Cc1ccccc1C(=O)O)c1ccc(CC(=O)O)cc1
84 to 85 °C	O=C(ON1CCC(c2nsc3ccccc23)CC1)c1ccccc1
172 to 173 °C	CC(=O)OCc1c(Br)cccc1N1Cc2cc(C(C)(C)C)sc2C1=O
184 to 185 °C	O=C(Nc1nc(=O)c2cnn3c2n1CC=C3c1cccc(C(F)(F)F)c1)C(F)(F)F
60 °C	CCCCC[C@H]1CC[C@H](COc2ccc(C(=O)C(F)(F)F)cc2)CC1
163 to 164 °C	CC(C)(C)c1cc(OCC(N)=S)cc(C(C)(C)C)c1O
183 to 184 °C	O=c1oc(-c2cccnc2)cc(O)c1SCc1ccccc1
147 to 148 °C	c1ccc(CCN2CCN(c3n[nH]c4c3CCCc3ccccc3-4)CC2)cc1
112 to 114 °C	CS(=O)(=O)n1cc(-c2ccccc2)c(=O)n1-c1ccccn1
121 to 124 °C	CCN(CC)S(=O)(=O)Oc1ccc2c(c1)CCC1C2CCC2(C)C(O)C(O)CC12 (centres undefined)
78.5 to 79 °C	CCCCCCCCCCCCNC(=O)COc1ccc(/C=C/C(=O)C(F)(F)F)cc1
175 to 178 °C	O=C(O)CCc1ccc(Sc2ccc(CCC(=O)O)cc2C(F)(F)F)c(C(F)(F)F)c1

melting point	Compound
55 °C	CCCCCCCCCCCCCCCCCCOP(=O)(Cc1cc(Cl)c(O)c(C(C)(C)C)c1)OCCCCCCCCCCCCCCCCCC
134 to 136 °C	CC(C)(C)C(=O)C(Oc1ccc(Cl)cc1)n1ncnc1S (centres undefined)
166 to 168 °C	O=C(Cn1c(-c2ccc(F)cc2)nc2cccnc21)OCCO
115 °C	CC(O)Cc1cc(N)cc([N+](=O)[O-])c1N (centres undefined)
134 to 135 °C	c1ccc2scnc2c1
152 °C	CC(=O)OC1CSC(Oc2cccc3ccoc23)C(OC(C)=O)C1OC(C)=O (centres undefined)
192 to 193 °C	N#Cc1ccc(NC(=O)c2ccc(-n3nc(C(F)(F)F)cc3C(F)(F)F)cc2)cc1
112 °C	CC(C)(C)OC(=O)n1c([Si](C)(C)C)cc2cnccc21
196 to 198 °C	N#Cc1c(N2CCc3ccccc3CC2)nc(CO)[nH]c1=O
95 to 97 °C	CC(Cn1ccc(C(F)(F)F)n1)n1nnc2cc3c(=O)n(C(C)Cn4ncnn4)nnc3cc2c1=O (centres undefined)
147 to 149 °C	S=C=Nc1ccc2sc(-c3cccs3)nc2c1
107 to 108 °C	O=C(C1CCN(c2ccncn2)CC1)N1CCN(Cc2ccccc2)CC1
133 to 136 °C	NCc1ccc(N2C(=O)N(c3ccccc3Br)Cc3cnc(Nc4ccccc4)nc32)cc1
128 °C	Cc1nc2cc3c(cc2c(=O)n1COC(=O)C(C)(C)C)CCC3
156 to 157 °C	Clc1ccc(CN2CCC(c3cc(-c4cccc(Cl)c4)[nH]n3)CC2)cc1
193 °C	Cc1ccccc1NC(C(=O)O)c1c(Cl)ccc(Cl)c1Cl (centres undefined)
176 to 177 °C	Cc1ccc(CCC(=O)NC(C)c2ccc(NS(C)(=O)=O)c(F)c2)cc1C (centres undefined)
93 to 94 °C	OCc1nn(-c2cccc(C(F)(F)F)c2)c2c1CCCC2
272 to 274 °C	CSc1[nH]n(C2CCCC2)c2nc(-c3ccncc3)nc(=O)c1-2
122 to 124 °C	CCOC(=O)c1[nH]c(I)c(C)c1CC
220 to 223 °C	COc1cc(S(C)=O)ccc1-c1nc2ncc(O)cc2[nH]1 (centres undefined)
83 to 87 °C	Nc1ccccc1CN(N)c1ccc(Cl)cc1
187 to 189 °C	CC(C)(C)c1cc(SCc2ccc(-c3nnn[nH]3)cc2)cc(C(C)(C)C)c1

Compound	melting point
CC(C)(C)C(=O)C=CC1C(C(=O)OC(C#N)c2cccc(Oc3ccccc3)c2)C1(C)C (centres undefined)	89 °C
COc1ccc(/C=C/c2cc(OC)c(OC)c(OC)c2)cc1	152 to 155 °C
COCC(OC(C)=O)C1CC(O)C2(C)CCC3C(CCC4=CC(=O)C=C(C)C43C)C12 (centres undefined)	203 to 204 °C
N#Cc1nn(-c2c(Cl)cc(C(F)(F)F)cc2Cl)c(N)c1C1=CCCCC1	175 to 177 °C
